Source: patent publication US20260293949A1, “CARBONATION SENSATION IMPARTING OR ENHANCING AGENT” (TAKASAGO INTERNATIONAL CORPORATION, priority 2022, published 2026)
“Also recorded” adds a separate entry of the source.

How the values were obtained:
[1] = Sensory evaluation of fizziness enhancement in carbonated water (WILKINSON TANSAN), specialized panelists; format: in vivo; conditions: for Fizziness enhancement evaluation result: average score of seven panelists, 1 to 5
Experimental: (§1) In the following Examples, the action and effect were verified using a value obtained by calculating an average score of scores for imparting or enhancing fizziness by sensory evaluation conducted by specialized panelists. The expression “1 point” in the evaluation is the evaluation in the case where no component is added at all (no addition).
Diethyl sebacate (manufactured by Inoue Perfumery Mfg. Co., Ltd., the same applies to the following Examples) was separately added to “WILKINSON (registered trademark) TANSAN (manufactured by Asahi Soft Drinks Co., Ltd.)” so as to reach the concentrations shown in Table 2 below, and sensory evaluation was performed by seven specialized panelists to determine the extent to which fizziness was enhanced as compared with a control in which diethyl sebacate was not added.
Diisobutyl adipate (manufactured by Inoue Perfumery Mfg. Co., Ltd., the same applies to the following Examples) was separately added to “WILKINSON (registered trademark) TANSAN (manufactured by Asahi Soft Drinks Co., Ltd.)” so as to reach the concentrations shown in Table 3 below, and sensory evaluation was performed by seven specialized panelists to determine the extent to which fizziness was enhanced as compared with a control in which diisobutyl adipate was not added.
Dimethyl sebacate (manufactured by Tokyo Chemical Industry Co., Ltd.) was separately added to “WILKINSON (registered trademark) TANSAN (manufactured by Asahi Soft Drinks Co., Ltd.)” so as to reach the concentrations shown in Table 4 below, and sensory evaluation was performed by seven specialized panelists to determine the extent to which fizziness was enhanced as compared with a control in which dimethyl sebacate was not added.
Dipropyl adipate (manufactured by Tokyo Chemical Industry Co., Ltd.) was separately added to “WILKINSON (registered trademark) TANSAN (manufactured by Asahi Soft Drinks Co., Ltd.)” so as to reach the concentrations shown in Table 5 below, and sensory evaluation was performed by seven specialized panelists to determine the extent to which fizziness was enhanced as compared with a control in which dipropyl adipate was not added.

[2] = Sensory evaluation of fizziness enhancement in beer-flavored beverage; format: in vivo; conditions: for Fizziness enhancement evaluation result: beer-flavored beverage, average score of seven panelists, 1 to 5
Experimental: as §1
Diethyl sebacate was separately added to “Asahi Dry Zero (registered trademark) (manufactured by Asahi Breweries, Ltd.)” so as to reach the concentrations shown in Table 8 below, and sensory evaluation was performed by seven specialized panelists to determine the extent to which fizziness was enhanced as compared with a control in which diethyl sebacate was not added.

[3] = Sensory evaluation of carbonation sensation imparting in cider-flavored frozen dessert; format: in vivo; conditions: for Carbonation sensation imparting evaluation result: average score of seven panelists, 1 to 5
Experimental: as §1
Diethyl sebacate was separately added to a cider-flavored frozen dessert prepared according to the formulation shown in Table 16 so as to reach a concentration shown in Table 17 below, and sensory evaluation was performed by seven panelists to determine the extent to which fizziness was imparted as compared with a control in which diethyl sebacate was not added.

[4] = biological target: T1, human TRPA1 (Homo sapiens, UniProt O75762); test: Evaluation of human TRPA1 activity in stably expressing cells (Fluo 4-AM calcium fluorescence); format: cell-based; conditions: human TRPA1 stably expressing Flp-In 293 cells; fluorescence 485/525 nm, 27° C.
T1 construct: doxycycline-inducible Flp-In T-REx 293 cells; Fluo-4 calcium assay
T1 sequence (O75762 whole entry): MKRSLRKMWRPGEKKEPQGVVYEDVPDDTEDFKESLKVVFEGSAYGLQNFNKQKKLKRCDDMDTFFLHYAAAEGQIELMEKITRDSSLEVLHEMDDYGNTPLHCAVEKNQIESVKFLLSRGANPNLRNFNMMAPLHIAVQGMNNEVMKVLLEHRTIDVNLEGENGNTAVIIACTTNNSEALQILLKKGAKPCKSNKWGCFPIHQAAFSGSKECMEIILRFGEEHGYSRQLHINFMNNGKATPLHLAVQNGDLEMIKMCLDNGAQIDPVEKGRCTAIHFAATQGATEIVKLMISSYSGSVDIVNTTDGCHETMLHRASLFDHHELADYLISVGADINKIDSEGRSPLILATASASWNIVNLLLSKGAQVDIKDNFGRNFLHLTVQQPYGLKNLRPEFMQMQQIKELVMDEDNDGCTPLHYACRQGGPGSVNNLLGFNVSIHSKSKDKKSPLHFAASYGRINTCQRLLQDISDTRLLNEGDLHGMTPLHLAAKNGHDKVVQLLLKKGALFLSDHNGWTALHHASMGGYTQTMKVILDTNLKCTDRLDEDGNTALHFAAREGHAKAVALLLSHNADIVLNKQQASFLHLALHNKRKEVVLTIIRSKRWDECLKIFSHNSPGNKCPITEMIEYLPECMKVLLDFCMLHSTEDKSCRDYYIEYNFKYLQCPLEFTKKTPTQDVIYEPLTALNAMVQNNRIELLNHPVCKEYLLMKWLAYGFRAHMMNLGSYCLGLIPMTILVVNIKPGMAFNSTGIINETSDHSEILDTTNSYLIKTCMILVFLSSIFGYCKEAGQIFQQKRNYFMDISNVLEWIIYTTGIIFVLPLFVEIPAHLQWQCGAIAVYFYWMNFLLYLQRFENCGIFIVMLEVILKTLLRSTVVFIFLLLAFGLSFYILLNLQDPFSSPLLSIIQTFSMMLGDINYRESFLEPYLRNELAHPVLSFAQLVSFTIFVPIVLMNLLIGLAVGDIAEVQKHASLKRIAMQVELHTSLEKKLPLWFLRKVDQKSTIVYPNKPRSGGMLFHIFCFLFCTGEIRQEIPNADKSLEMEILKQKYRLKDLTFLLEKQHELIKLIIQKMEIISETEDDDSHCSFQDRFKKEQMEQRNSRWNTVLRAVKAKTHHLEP
Description: The full-length human TRPA1 gene (GenBank Accession Number: NM_007332) was amplified from plasmid pFN21AB7348 (manufactured by Kazusa DNA Research Institute), and the full-length human TRPV1 gene (GenBank Accession Number: NM_018727) was amplified from pFN21AE2418 (manufactured by Kazusa DNA Research Institute) using PCR. The obtained PCR product was subcloned into pcDNA5/FRT/TO (manufactured by ThermoFisher Scientific), and then introduced into Flp-In 293 cells (manufactured by Thermo Fisher Scientific) using a Flp-In T-REX system (manufactured by Thermo Fisher Scientific) to prepare a human TRPA1 stably expressing cell line and a human TRPV1 stably expressing cell line […]
After replacing the culture medium with buffer solution, fluorescent calcium indicator Fluo 4-AM (manufactured by Dojindo Laboratories) was added and incubated at 37° C. for 1 hour. After replacing the culture solution with buffer solution again, the microplate was set to a fluorescence microplate reader FlexStation 3 (manufactured by Molecular Devices, LLC.). Diethyl sebacate was added at various concentrations at an internal temperature of 27° C., and the fluorescence intensity at a wavelength of 525 nm when excited at a wavelength of 485 nm was measured. […]

[5] = carbonated beer-flavored beverage

SMILES: CCOC(=O)CCCCCCCCC(=O)OCC [Diethyl sebacate, diethyl sebacate]
- amelioration of mouthfeel (in words) [1]: effect of ameliorating the mouthfeel was also confirmed
- fizziness enhancement (in words) [1]: fizziness of carbonated water can be enhanced
- Fizziness enhancement evaluation result ([1]; 0.1 ppm): 1.1 points
- Fizziness enhancement evaluation result ([1]; 0.3 ppm): 2.1 points
- Fizziness enhancement evaluation result ([1]; 1 ppm): 3.7 points
- Fizziness enhancement evaluation result ([1]; 5 ppm): 4.6 points
- Fizziness enhancement evaluation result ([1]; 10 ppm): 4.5 points
- Fizziness enhancement evaluation result ([1]; 20 ppm): 2.5 points
- Fizziness enhancement evaluation result ([1]; 50 ppm): 2.1 points
- Fizziness enhancement evaluation result ([1]; 100 ppm): 1.7 points
- Fizziness enhancement evaluation result ([2]; 0.1 ppm): 1.1 points
- Fizziness enhancement evaluation result ([2]; 0.3 ppm): 1.6 points
- Fizziness enhancement evaluation result ([2]; 1 ppm): 2.7 points
- Fizziness enhancement evaluation result ([2]; 5 ppm): 2.9 points
- Fizziness enhancement evaluation result ([2]; 10 ppm): 2.7 points
- Fizziness enhancement evaluation result ([2]; 20 ppm): 2.7 points
- Fizziness enhancement evaluation result ([2]; 50 ppm): 1.9 points
- Fizziness enhancement evaluation result ([2]; 100 ppm): 1.1 points
- amelioration of mouthfeel (in words) [2, 5]: effect of ameliorating the mouthfeel was also confirmed
- fizziness enhancement (in words) [2, 5]: fizziness of the carbonated beer-flavored beverage can be enhanced
- amelioration of mouthfeel (in words) [3]: effect of ameliorating the mouthfeel was also confirmed
- fizziness imparting (in words) [3]: fizziness can be imparted to the cider-flavored frozen dessert
- Carbonation sensation imparting evaluation result ([3]; 0.1 ppm): 1.4 points
- Carbonation sensation imparting evaluation result ([3]; 0.3 ppm): 1.9 points
- Carbonation sensation imparting evaluation result ([3]; 1 ppm): 2.1 points
- Carbonation sensation imparting evaluation result ([3]; 5 ppm): 3.6 points
- Carbonation sensation imparting evaluation result ([3]; 10 ppm): 4.5 points
- Carbonation sensation imparting evaluation result ([3]; 20 ppm): 3.6 points
- Carbonation sensation imparting evaluation result ([3]; 50 ppm): 2.7 points
- Carbonation sensation imparting evaluation result ([3]; 100 ppm): 1.4 points
- TRPA1 activity [4]: high TRPA1 activity; also recorded: respond
